Experimental data from patent US4400517A, “Phosphoric esters derived from 1,2,4-triazole having an insecticidal, nematocidal and acaricidal action, and their preparation” (priority 1976, dated 1983).
Like-named read-outs stand apart in the source and are kept apart here.

Experiments:
Tetranychus urticae [1] = experiment: Biological activity on adults of Tetranychus urticae (Acari); assay type: in vivo; conditions: 24 h
Protocol: (5) Biological activity on adults of Tetranychus urticae (Acari)
Discs of bean leaves were infested with adult acari and then sprinkled with an aqueous dispersion of the products under examination (see Tables 4 and 5).
The mortality percentage was determined after 24 hours from treatment (untreated leaf discs, mortality=0).

Blatta orientalis = experiment: Biological activity on Blatta orientalis (Ortoptera); assay type: in vivo; conditions: Blatta orientalis, 48 h, read-out: Activity (mortality class), Blatta O.
Protocol: (10) Biological activity on Blatta orientalis (Ortoptera)
The bottom and walls of glass crystallizers were treated uniformly with an acetonic solution of the products under examination (see Tables 4 and 5). After evaporation of the solvent, into each crystallizer were introduced ten 80-100 days old neanides. The crystallizers were then closed with a metal net cover. After 24 hours from the start of the treatment, the insects were transferred to similar untreated crystallizers, and there were appropriately nourished in conventional manner.
The percentage of mortality (untreated insects=0) was determined after 48 hours from the start of the treatment.

Spodoptera littoralis = experiment: Biological activity on Spodoptera littoralis (Lepidoptera); assay type: in vivo; conditions: 48 h
Protocol: (7) Biological activity on Spodoptera littoralis (Lepidoptera)
Cut tobacco leaves were sprinkled with an aqueous dispersion of the products under examination (see Tables 4 and 5).
After drying, the leaves were infested with 5-day old larvae.
The percentage of mortality of the larvae was determined after 48 hours from treatment (untreated leaves, mortality=0).

Pieris brassicae = experiment: Biological activity on Pieris brassicae (Lepidoptera); assay type: in vivo; conditions: 48 h
Protocol: (2) Biological activity on Pieris brassicae (Lepidotera)
Cut-off cauliflower leaves were sprinkled with an aqueous dispersion of the products under examination (see TABLE 5).
After drying, the leaves were infested with 5-day old larvae. The percentage of mortality of the larvae (untreated leaves=0) was determined after 48 hours from treatment.

Locusta M. = experiment: Activity on Locusta M.; conditions: in vivo
Culex pipiens = experiment: Biological activity on Culex pipiens larvae (Diptera); assay type: in vivo; conditions: 24 h
Protocol: (4) Biological activity on Culex pipiens (Diptera)
Into glasses containing an aqueous dispersion of the products under examination (see Tables 4 and 5) there were introduced mosquito larvae of third and fourth age.
The mortality percentage of the larvae (glasses containing pure water=0) was determined after 24 hours from treatment.

[2] = system: Leptinotarsa decemlineata; experiment: Biological activity on Leptinotarsa decemlineata (Coleoptera); assay type: in vivo; conditions: 48 h
Protocol: (3) Biological activity on Leptinotarsa decemlineata (Coleoptera)
Small potato plants grown in pots were infested with 4-day old larvae, and were then sprinkled with an aqueous dispersion of the products under examination (see Tables 4 and 5).
The mortality percentage (untreated small plants=0) was determined after 48 hours from treatment.

Macrosiphum euphorbiae = experiment: Biological activity on Macrosiphum euphorbiae (Aphides); assay type: in vivo; conditions: potato plants, 24 h
Protocol: (1) Biological activity on Macrosiphum euphorbiae (Aphides)
Potato plants grown in pots were infested with adult females of aphides and, after several hours, were sprinked with an aqueous dispersion of the products under examination (see TABLE 5).
The percentage of mortality was assessed after 24 hours after the treatment (untreated plants=0).

Tetranychus urticae [3] = experiment: Biological activity on Tetranychus urticae eggs (Acari); assay type: in vivo; conditions: bean leaf discs, 144 h
Protocol: (6) Biological activity on Tetranychus urticae (Acari)
Small discs of bean leaves were infested with Acari eggs and were then sprinkled with an aqueous dispersion of the products under examination (see Table 5).
The mortality percentage was determined after 6 days from treatment (untreated leaf discs, mortality=0).

[4] = read-out: Activity (mortality class), Tetranychus U. (adults)
[5] = read-out: Activity (mortality class), Spodoptera L.
[6] = read-out: Activity (mortality class), Pieris B.
[7] = read-out: Activity (mortality class), Culex P. (larvae)
[8] = read-out: Activity (mortality class), Leptinotarsa D.
[9] = 1%o, Table 5, read-out: Activity (mortality class), Tetranychus U. (adults)
[10] = 1%o, Table 5, read-out: Activity (mortality class), Spodoptera L.
[11] = 1%o, Table 5, read-out: Activity (mortality class), Pieris B.
[12] = 1%o, Table 5, read-out: Activity (mortality class), Leptinotarsa D.
[13] = 0.01%o, Table 5, read-out: Activity (mortality class), Tetranychus U. (adults)
[14] = 0.01%o, Table 5, read-out: Activity (mortality class), Pieris B.
[15] = 2 ppm, Table 5, read-out: Activity (mortality class), Culex P. (larvae)
[16] = 0.05%o, Table 5, read-out: Activity (mortality class), Leptinotarsa D.
[17] = 0.05%o, Table 5, read-out: Activity (mortality class), Spodoptera L.
[18] = 0.02 ppm, Table 5, read-out: Activity (mortality class), Culex P. (larvae)

| SMILES | mortality at 0.1 % (Tetranychus urticae [1]; [9]) [%] | mortality at 0.1 % (Spodoptera littoralis; [10]) [%] | mortality at 0.1 % (Pieris brassicae; [11]) [%] | Activity (mortality class), Macrosiphum E. (Macrosiphum euphorbiae) | Activity (mortality class), Tetranychus U. (eggs) (Tetranychus urticae [3]) | mortality at 2 ppm (Culex pipiens; [7]) [%] | mortality at 0.1 % [2, 12] [%] | mortality at 0.1 % (Spodoptera littoralis; [5]) [%] | mortality at 0.1 % (Pieris brassicae; [6]) [%] | mortality at 0.001 % (Tetranychus urticae [1]; [13]) [%] | mortality at 1 g/m2 (Blatta orientalis; 1 g/m^2, Table 5) [%] | mortality at 0.001 % (Pieris brassicae; [14]) [%] | mortality at 2 ppm (Culex pipiens; [15]) [%] | mortality at 0.005 % [2, 16] [%] | mortality at 0.01 g/m2 (Blatta orientalis; 0,01 g/m^2, Table 5) [%] | also measured |
| --- | --- | --- | --- | --- | --- | --- | --- | --- | --- | --- | --- | --- | --- | --- | --- | --- |
| CC=Cc1nc(OP(=S)(OCC)OCC)n(C)n1 [M 8119] | – | – | – | – | – | – | – | – | – | – | – | – | – | – | – | mortality at 0.001 % (Tetranychus urticae [1]; [4]): 70 to 99%; mortality at 0.01 g/m2 (Blatta orientalis): 100%; mortality at 0.005 % (Spodoptera littoralis; [5]): 10 to 69%; mortality at 0.001 % (Pieris brassicae; [6]): 10 to 69%; Activity (mortality class), Locusta M. (Locusta M.): ++ (100% of mortality); mortality at 0.02 ppm (Culex pipiens; [7]): 0 to 9%; mortality at 0.005 % [2, 8]: 10 to 69% |
| CCOP(=S)(OCC)Oc1nc(C(C)OC)nn1-c1ccccc1 (stereo not drawn) [M 8167] | 100 | 100 | 100 | + (70-99% of mort.) | ++ (100% of mortality) | 100 | 100 | – | – | – | – | – | – | – | – | – |
| CCOP(=S)(OCC)Oc1nc(C(=O)CSC)nn1-c1ccccc1 [M 8169] | – | – | – | ± (10-69% of mort.) | ++ (100% of mortality) | 100 | – | 10 to 69 | 100 | – | – | – | – | – | – | mortality at 0.1 % (Tetranychus urticae [1]; [4]): 100%; mortality at 0.1 % [2, 8]: 100% |
| CCOP(=S)(OCC)Oc1nc(C(C)SC)nn1-c1ccccc1 (stereo not drawn) [M 8170] | – | – | – | + (70-99% of mort.) | ++ (100% of mortality) | 100 | – | 70 to 99 | 100 | – | – | – | – | – | – | mortality at 0.1 % (Tetranychus urticae [1]; [4]): 100%; Activity (mortality class), Locusta M. (Locusta M.): ++ (100% of mortality); mortality at 0.1 % [2, 8]: 100% |
| CCCOP(=S)(OCCC)Oc1nc(C=C(Cl)Cl)nn1C [M 8448] | 100 | 100 | 100 | ++ (100% of mortality) | ++ (100% of mortality) | – | 100 | – | – | 100 | 100 | 10 to 69 | 100 | 100 | – | Activity (mortality class), Locusta M. (Locusta M.): ± (10-69% of mort.) |
| C=Cc1nc(OP(=S)(OCC)OCC)n(C)n1 [M 8476] | – | – | – | – | – | – | – | – | – | 100 | – | – | – | – | 100 | Activity (mortality class), Locusta M. (Locusta M.): ++ (100% of mortality); mortality at 0.02 ppm (Culex pipiens; [7]): 10 to 69% |
| COP(=S)(OC)Oc1nc(C=C(Cl)Cl)nn1C(C)C [M 8499] | – | – | – | – | – | – | – | – | – | 10 to 69 | – | 10 to 69 | – | 0 to 9 | 10 to 69 | mortality at 0.005 % (Spodoptera littoralis; [17]): 100%; mortality at 0.02 ppm (Culex pipiens; [18]): 10 to 69% |
| CCCOP(=S)(OCCC)Oc1nc(C=C(Cl)Cl)nn1C(C)C [M 8500] | 10 to 69 | 10 to 69 | 100 | – | – | – | 100 | – | – | – | 0 to 9 | 10 to 69 | 70 to 99 | – | – | – |
| CCCC=C(CC)c1nc(OP(=S)(OCC)OCC)n(C)n1 [M 8591] | 100 | 100 | 100 | – | – | – | 100 | – | – | 100 | 100 | – | 100 | – | – | – |
| CCOP(=S)(OCC)Oc1nc(C=C(Cl)OC)nn1C [M 8592] | 100 | 100 | 100 | – | – | – | 100 | – | – | 100 | 100 | 100 | 100 | 100 | 100 | mortality at 0.005 % (Spodoptera littoralis; [17]): 100%; mortality at 0.02 ppm (Culex pipiens; [18]): 10 to 69% |
| C=C(C)c1nc(OP(=S)(OCC)OCC)n(C)n1 [M 8593] | – | – | – | ++ (100% of mortality) | ± (10-69% of mort.) | 100 | – | 100 | 100 | – | – | – | – | – | – | mortality at 0.001 % (Tetranychus urticae [1]; [4]): 10 to 69%; mortality at 0.1 % (Tetranychus urticae [1]; [4]): 100%; mortality at 0.01 g/m2 (Blatta orientalis): 70 to 99%; mortality at 1 g/m2 (Blatta orientalis): 100%; mortality at 0.02 ppm (Culex pipiens; [7]): 10 to 69%; mortality at 0.1 % [2, 8]: 100% |
| CCOP(=S)(OCC)Oc1nc(C=C(Cl)SC)nn1C [M 8805] | 100 | – | – | – | – | – | 100 | 100 | 100 | 100 | – | – | 100 | 100 | – | mortality at 0.01 g/m2 (Blatta orientalis): 10 to 69%; mortality at 1 g/m2 (Blatta orientalis): 100%; mortality at 0.005 % (Spodoptera littoralis; [5]): 100%; mortality at 0.001 % (Pieris brassicae; [6]): 10 to 69%; mortality at 0.02 ppm (Culex pipiens; [18]): 100% |
| CCOP(=S)(OCC)Oc1nc(C=C(SC)SC)nn1C [M 8825] | 100 | 100 | 100 | – | – | – | 100 | – | – | 100 | 100 | 0 to 9 | 100 | 100 | 10 to 69 | mortality at 0.005 % (Spodoptera littoralis; [17]): 10 to 69%; mortality at 0.02 ppm (Culex pipiens; [18]): 70 to 99% |
| CC=Cc1nc(OP(=S)(OCC)OCC)n(C(C)C)n1 [M 9137] | 100 | – | 100 | ++ (100% of mortality) | ++ (100% of mortality) | – | 100 | – | – | 10 to 69 | 100 | – | 100 | 100 | 10 to 69 | – |
| CCOP(=S)(OCC)Oc1nc(C(O)CSC)nn1-c1ccccc1 (stereo not drawn) [M 9173] | – | – | – | ++ (100% of mortality) | – | 100 | – | 100 | 100 | – | – | – | – | – | – | mortality at 0.1 % (Tetranychus urticae [1]; [4]): 100%; mortality at 1 g/m2 (Blatta orientalis): 100%; mortality at 0.1 % [2, 8]: 100% |
